Assay results taken from US20260224611A1, “POLYOL-B-POLYOXAZOLINE COPOLYMERS” (FREIE UNIVERSITÄT BERLIN, priority 2023, published 2026).

Assays:
[1] = test system: infected non-diabetic wounds; assay: Wound healing animal study, infected non-diabetic wounds; assay type: in vivo; details: after 10 days, rats
Procedure: (§1) Based on these achievements, the efficiency of hPG-b-PEtO for diabetic wound healing in animals was investigated. For this purpose, an animal study was performed in two different groups of rats with infected non-diabetic wounds (FIG. 12A) and infected diabetic wounds (FIG. 12B). […] Saline buffer without additions was used as control. The ability of the copolymer to heal wounds was investigated by measuring the wound contraction at different treatment times.

infected diabetic wounds = assay: Wound healing animal study, infected diabetic wounds; assay type: in vivo; details: after 10 days, rats
Procedure: as §1

Question: How did the wound closure area [1] turn out when `O=C1NC(=O)C(c2ccccc2)(c2ccccc2)N1` [phenytoin] was run?
Answer: 90%

Question: What about the wound closure area (infected diabetic wounds) of the same molecule?
Answer: 62%
